“Also recorded” adds a separate entry of the source.
Experiments:
rat FAAH = target: T1, rat FAAH (Rattus norvegicus, UniProt P97612); experiment: FAAH enzyme assay, hydrolysis of [14C]AEA in HeLa homogenates; format: biochemical; details: FAAH-transfected HeLa homogenates
T1 construct: expressed in transfected cells; host or cells: HeLa
T1 sequence (P97612 1-579): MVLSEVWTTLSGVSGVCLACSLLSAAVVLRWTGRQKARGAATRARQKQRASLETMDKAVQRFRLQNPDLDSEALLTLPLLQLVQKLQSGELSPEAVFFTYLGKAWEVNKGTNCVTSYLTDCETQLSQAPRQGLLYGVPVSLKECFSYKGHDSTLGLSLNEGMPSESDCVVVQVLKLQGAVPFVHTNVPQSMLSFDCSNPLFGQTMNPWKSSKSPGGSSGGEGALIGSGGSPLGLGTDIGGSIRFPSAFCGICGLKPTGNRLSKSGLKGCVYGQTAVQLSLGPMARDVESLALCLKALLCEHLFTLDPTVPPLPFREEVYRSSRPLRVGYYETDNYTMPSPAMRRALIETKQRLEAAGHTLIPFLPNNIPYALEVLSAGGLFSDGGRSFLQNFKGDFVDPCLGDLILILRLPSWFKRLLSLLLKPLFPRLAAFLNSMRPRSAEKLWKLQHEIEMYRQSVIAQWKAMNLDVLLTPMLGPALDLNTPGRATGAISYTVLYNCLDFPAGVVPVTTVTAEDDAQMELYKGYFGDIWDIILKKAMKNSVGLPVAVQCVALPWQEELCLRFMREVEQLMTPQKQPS

[1] = tested on: dorsal raphe (DR) serotonin (5-HT) neurons; experiment: Patch-clamp electrophysiology in brain slices, glutamate-mediated EPSCs; format: cell-based
Experimental: Whole-cell-voltage clamp recordings of dorsal raphe (DR) serotonin (5-HT) neurons were performed as previously described. Briefly, DR neurons were visualized using an upright microscope (BX 51 WI, Olympus, Tokyo, Japan) equipped with a differential interference contrast and infrared imaging system. Somatic recordings from DR neurons were obtained with path electrodes ([…]) back-filled with potassium gluconate based internal solution of the following composition: 120 mM potassium gluconate, 10 mM KCl, 10 mM Na2-phosphocreatine, 10 mM HEPES, 1 mM MgCl2, 1 mM EGTA, 2 mM Na2-ATP, 0.25 mM Na-GTP, pH 7.3 (Adjusted with KOH; Osmolarity, 280 to 290 mOsmol/l). All the recordings were conducted in the presence of GABAA receptor antagonist picrotoxin (100 μM). Excitatory postsynaptic currents (EPSCs) were evoked with a single square stimulus (intensity, 1 to 10 V, duration, 100 to 200 μs) delivered via a glass stimulating electrode. […]
The amplitude of EPSCs was determined by measuring the average current during a 2-ms period at the peak of each EPSC and subtracted from the baseline current determined during a 5-ms time window before the stimulus. All EPSC amplitudes were normalized to the mean baseline amplitude recorded for at least 10 min before drug application. […]

mice = experiment: Acetic acid-induced writhing; format: in vivo
Experimental: (§1) We used male C57Bl6 mice (22-30 g, Taconic Farms) for all experiments. The animals were group housed at room temperature and kept on a 12:12 hour light:dark cycle with ad libitum access to water and food. The animals were habituated to the experimental room for one week before testing. All experiments were approved by the Stony Brook University Institutional Animal Care and Use Committee. The experimenter was blinded to the treatment conditions of each animal.

male C57Bl6 mice [2] = experiment: Formalin test; format: in vivo
Experimental: as §1
Mice were habituated to the observation chamber (Plexiglas box, 25 cm×25 cm×25 cm) for 30 min prior to formalin injection. The mice subsequently received an injection of formalin (2.5% in saline, 20 μl) into the plantar surface of the right hind paw using a 27 gauge needle. The animals were immediately placed back into the observation, chamber and nocifensive behavior (time spent licking or biting the paw) was recorded for 60 min. The formalin test consists of two phases with the first phase (0-5 min) reflecting nociceptor activation and the second phase (15-45 min) reflecting an inflammatory pain response.
(§2) Behavioral data are presented as means±S.E.M. for the vehicle and inhibitor-treated groups, each consisting of at least 6 animals. Statistical significance between vehicle and inhibitor groups was determined using unpaired t-tests or one-way ANOVA followed by Dunnett's post hoc analysis. In all cases, differences of p<0.05 were considered significant.

male C57Bl6 mice [3] = experiment: Carrageenan-induced paw edema and thermal hyperalgesia; format: in vivo
Experimental: as §1
Paw edema was induced by injecting 1% λ-carrageenan (20 μl, in sterile saline) into the plantar surface of the left hind paw and a control solution of saline into the right hind paw using a 27 gauge needle. Paw diameters were measured before carrageenan injection and 4 hours after injection using digital electronic calipers (Fisher) and expressed to the nearest ±0.01 mm. […] The cannabinoid receptor antagonists, rimonabant and SR144528 (3 mg/kg, i.p.), in ethanol:emulphor:saline (1:1:18), were injected 15 min before the FABP inhibitor. Edema is reported as the change in paw diameter at 4 hr over the baseline. Changes in paw diameter of saline-injected contralateral paws were negligible. Thermal hyperalgesia measured the latency to withdraw the paw from a focused beam of radiant heat applied to the plantar surface of the hind paw using a Hargreaves plantar apparatus (Ugo Basile) set at an intensity of 3.0. For each mouse, the average latencies consisted of three trials spaced at least 5 minutes apart. The mice were habituated to the test chamber for 30 min. The cutoff time was set at 30 sec.
as §2

[4] = tested on: brain levels of the endocannabinoid anandamide (AEA); experiment: Brain levels of the endocannabinoid anandamide (AEA); format: in vivo, mice; details: FIG. 17
Experimental: as §1

Question: Which results are given for `O=C(O)[C@H]1[C@@H](c2ccccc2)[C@@H](C(=O)Oc2cccc3ccccc23)[C@@H]1c1ccccc1` (single isomer, unassigned) [Compound 26, α-2,4-diphenyl-cyclobutane-1,3-dicarboxylic Acid mono-(1-naphthol) Ester]?
Answer: inhibition of FAAH (AEA hydrolysis) (rat FAAH): does not inhibit; amplitude of EPSCs ([1]; bath application 10 μM, n=8): 107±6.7 % of baseline; agonist properties at CB1 receptors ([1]; concluded from EPSC amplitude, 10 μM): is not a CB1 receptor agonist; antinociceptive effects with SR141716 (3 mg/kg) and GW6471 (4 mg/kg) (mice; FIG. 16E): reversed; acetic acid-induced writhing (mice; FIGS. 16C-D): reduces; formalin test first phase (0-5 min) nocifensive behavior (male C57Bl6 mice [2]; 20 mg/kg, i.p. (FIG. 10A)): significantly reduced; also recorded: reduces; formalin test second phase (15-45 min) nocifensive behavior (male C57Bl6 mice [2]; 20 mg/kg, i.p. (FIG. 10A)): only during the first phase; first phase of formalin-induced nociception (male C57Bl6 mice [2]; FIG. 16B): reduce; second phase of formalin-induced nociception (male C57Bl6 mice [2]; FIG. 16B): reduce; antinociceptive and anti-edematous effects after rimonabant and SR144528 pretreatment (male C57Bl6 mice [3]; 20 mg/kg i.p., antagonists 3 mg/kg i.p. 15 min before): completely reversed; also recorded: blocked; carrageenan-induced paw edema, 24 hrs after inhibitor administration (male C57Bl6 mice [3]; 20 mg/kg, i.p. (FIG. 16A)): reduced; carrageenan-induced thermal hyperalgesia, 24 hrs after inhibitor administration (male C57Bl6 mice [3]; 20 mg/kg, i.p. (FIG. 16A)): reduced; carrageenan-induced thermal hyperalgesia (male C57Bl6 mice [3]; 20 mg/kg, i.p., 45 min prior to carrageenan (FIG. 10B)): significantly reduced; also recorded: alleviates; carrageenan-induced paw edema (male C57Bl6 mice [3]; 20 mg/kg, i.p., paw diameter at 4 hr (FIG. 10C)): significantly reduced; also recorded: reduces; brain levels of anandamide (AEA) [4]: elevates
